Laboratory results: PMC7901654, “Bioisosteric Discovery of NPA101.3, a Second-Generation RET/VEGFR2 Inhibitor Optimized for Single-Agent Polypharmacology” (Journal of Medicinal Chemistry, 2020)

Tests used:
[1] = system: NIH3T3 RET/C634Y tumors; format: in vivo
Procedure: In vivo target (RET and VEGFR2) inhibition was studied by treating animals grafted with NIH3T3 RET/C634Y cells at different doses (0.3, 1, or 3 mg/kg/day p.o.) of NPA101.3 for 2 days and then performing Western blot analysis on protein extracts. […] Then, to determine antitumorigenic activity and to better distinguish RET- and VEGFR2-mediated effects, we tested NPA101.3 in nude mice transplanted with NIH3T3 cells transformed by either RET/C634Y or HRAS/G12V. Before tumors appeared, animals were treated daily with NPA101.3 (1.0, 3.0, or 10.0 mg/kg/day) or left untreated. […] Still, VEGFR2 inhibition was detected also in RAS-driven tumors, an effect that might explain the, albeit reduced, effect of the drug on their growth (Figure S13). Importantly, as predicted, no trace of NPA101.3 demethyl metabolites was detected after 1 or 4 h from oral dosing in mice (Figure S14).
Figure 6 Effects of NPA101.3 on in vivo tumor growth. NIH3T3 cells transformed by RET/C634Y or HRAS/G12V were inoculated subcutaneously into nu/nu mice. After 4 days, animals were randomly assigned to receive for the indicated time periods the compound (1.0, 3.0, or 10 mg/kg/day) (24 mice; 8 mice/group for 1, 3, and 10 mg/kg doses) or vehicle (8 mice) by oral gavage. The average size of tumors is reported ± SD.
NPA101.3 was dissolved in 80% H2O, 19.875% Tween 20, and 0.125% xanthan gum. The formulation was stored at room temperature and vortexed prior to administration. NIH3T3 RET/C634Y (200000) or NIH3T3 HRAS/G12V (50000) cells were inoculated subcutaneously into the dorsal portion (both sides) of 6-week-old female BALB/c nu/nu mice (32 mice/cell line) (Jackson Laboratories, Bar Harbor, ME). After 4 days, before tumors had appeared, animals were randomly assigned to receive NPA101.3 (1.0, 3.0, or 10 mg/kg/day) (8 mice/group) or vehicle control (8 mice) by oral gavage. Tumor diameters were measured with caliper every 2–3 days. Tumor volumes (V) were calculated by the rotational ellipsoid formula V = A × B^2/2 (A is the axial diameter, and B is the rotational diameter). […] Animals were fed ad libitum on an autoclaved diet and tap water and maintained at the Dipartimento di Medicina Molecolare e Biotecnologie Mediche Animal Facility. All manipulations were performed while the animals were under isoflurane gas anesthesia. Animal studies were conducted in accordance with Italian regulations for experimentation on animals and approved by the Italian Ministry of Health (Authorization 1023/2015-PR). To compare tumor growth, an unpaired Student’s t test (InStat program, GraphPad Software) was used. P values were statistically significant at the P < 0.05 level. […]

[2] = system: RET (either transfected or endogenously expressing) mutant cells; test: Growth inhibition, all RET mutant cells (summary); format: cell-based; settings: range over transfected and endogenously expressing cells; read-out: IC50, growth inhibitory effect on RET mutant cells
Procedure: Finally, NPA101.3 featured efficacy already at 1 mg/kg/day in RET-driven tumors in nude mice. […] Therefore, though in a therapeutic setting toxicity may be increased by hitting multiple targets, it is feasible that the activity of the NPA101.3 against RET-driven tumors may take advantage of a synergistic combination of cell autonomous (on tumor cell growth mediated by RET inhibition) and non-cell autonomous (on blood vessel formation mediated by VEGFR2 inhibition) effects, potentiating its effect and reducing the chances of resistance development. Several TKIs with anti-RET activity are available, and some are already registered for the treatment of different types of thyroid cancers. […]
Nthy-ory-3-1 (10000 per well), TPC-1 (10000 per well), MZ-CRC-1 (100000 per well), TT (200000 per well), Lc-2/ad (100000 per well), BCPAP (10000 per well), 8505-C (10000 per well), PC-9 (10000 per well), A549 (10000 per well), CALU-1 (10000 per well), NIH3T3 RET/C634Y (10000 per well), and NIH3T3 HRAS/G12V (10000 per well) were seeded in six-well tissue culture plates. […] Cells were counted every day (Ba/F3), every 2 days (fibroblasts), or every 2–3 days (human cell lines). […] IC50 doses were calculated through a curve fitting analysis from last day of growth curves using the PRISM software program (Graphpad Software Inc.).

CC(C)(C)c1cc(NC(=O)Cc2ccc(-n3cnc4cc(-c5ccc(S(C)(=O)=O)cc5)ccc43)cc2)no1 [NPA101.3]
RET phosphorylation and signaling in NIH3T3 RET/C634Y tumors ([1]; 1.0 mg/kg, 3 h after last dose): strong RET phosphorylation and signaling inhibition | tumor formation induced by RET/C634Y-transformed cells ([1]; 10 mg/kg/day oral, nu/nu mice, treatment before tumors appeared): completely prevented | rate of growth of RET-driven tumors ([1]; lower doses (1.0, 3.0 mg/kg/day) oral): significantly reduced | signs of wasting or toxicity in xenograft mice ([1]; mouse, in vivo): No mouse showed signs of wasting or other signs of toxicity | IC50 [2]: 0.67 to 4.17 nM
